# Tested on: yeast genes (level of expressed mRNA)
# Experiment: DNA chip analysis of expressed mRNA of yeast genes after 2 h culture with a toxic chemical substance
# Type: cell-based, Saccharomyces cerevisiae S288C
# Method: Yeast (Saccharomyces cerevtisiae S288C (α SUC2mal mel gap2 CUP1)) were cultured at 25° C. on YPD medium (yeast extract 1%, polypepton 2%, glucose 2%). One of toxic chemical substances was added to the cell at logarithmic growth phase, and the cell was further cultured for two hours. Cell was cultured without any chemical substance in the same condition, and was used as control. Concentrations of the chemical substances were defined to inhibit the growth of the yeast but not lead to death.
# After the completion of cultivation, the culture was centrifuged to collect the cells. To the cells, sodium acetate buffer (50 mM sodium acetate, 10 mM EDTA, 1% SDS) was added, and the mixture was shaken at 65° C. for five minutes, followed by returning to room temperature, and obtaining the supernatant, which procedure was repeated two times. To the supernatant, ½ amount of a solution of phenol/chloroform was added, and the mixture was centrifuged to give a supernatant, which was added with an equal amount of chloroform, and the mixture was centrifuged to give a supernatant. To the supernatant, an equal amount of isopropanol containing 0.3 M sodium acetate was added, and the mixture was allowed to stand at room temperature for 30 minutes, after which the mixture was centrifuged to give a sediment of the whole RNAs. Seventy % ethanol was added to the sediment, and the mixture was again centrifuged to give a sediment, which was then dried and dissolved in water. mRNA was isolated from the whole RNAs as followings. In view of the fact that a poly A chain is attached to the 3′ terminus of mRNA, a polynucleotide having a poly T structure which was immobilized on the surface of latex beads was used to trap the mRNA, and then the mRNA was washed and eluted with spine column (Oligotex-dT30<Super>mRNA Purification Kit, Takara). Reverse transcription of the mRNA was conducted with a reverse transcriptase (Super Script II Reverse Transcriptase; catalogue No. 18064-014, GibcoBRL) using fluorescence-labeled nucleotides to give cDNAs that were introduced with Cy3-dUTP or Cy5-dUTP during the reverse transcription.
# The labeled cDNAs were dissolved in TE buffer (10 mM Tris-HCl/1 mM EDTA, pH8.0), and the solution was dropped on the DNA chip containing the whole genes of yeast (DNA Chip Research Inc. Japan) so that the cDNAs were hybridized on the DNA chip at 65° C. for over 12 hours. The fluoresces intensity of the DNA chip was read with a scanner, and the ratio relative to the fluorescence intensity resulting from the absence of chemical substance was estimated as the following, which is shown in Tables 1 to 9: [formula]
# In the Tables, “Intensity” indicated in the rightmost column is a value of the level of expressed mRNA of each gene in control cells as divided by the average level of the expressions of the whole genes.
compound,measurement,setting,value
"CN(C)C(=S)SSC(=S)N(C)C [(10), Tetramethylthiuram disulfide]",The level of expressed mRNA in the presence of chemical substance/The level of expressed mRNA in the absence of chemical substance,yeast gene YAR010C,1.1
same,The level of expressed mRNA in the presence of chemical substance/The level of expressed mRNA in the absence of chemical substance,yeast gene YBL005W-A,1.5
same,The level of expressed mRNA in the presence of chemical substance/The level of expressed mRNA in the absence of chemical substance,yeast gene YBL041W,2.6
same,The level of expressed mRNA in the presence of chemical substance/The level of expressed mRNA in the absence of chemical substance,yeast gene YBL043W,14.7
same,The level of expressed mRNA in the presence of chemical substance/The level of expressed mRNA in the absence of chemical substance,yeast gene YBL078C,15.2
same,The level of expressed mRNA in the presence of chemical substance/The level of expressed mRNA in the absence of chemical substance,yeast gene YBR214W,3.5
same,The level of expressed mRNA in the presence of chemical substance/The level of expressed mRNA in the absence of chemical substance,yeast gene YCL020W,2.4
same,The level of expressed mRNA in the presence of chemical substance/The level of expressed mRNA in the absence of chemical substance,yeast gene YCL027W,16.3
same,The level of expressed mRNA in the presence of chemical substance/The level of expressed mRNA in the absence of chemical substance,yeast gene YCR004C,2.1
same,The level of expressed mRNA in the presence of chemical substance/The level of expressed mRNA in the absence of chemical substance,yeast gene YCR071C,1.2
same,The level of expressed mRNA in the presence of chemical substance/The level of expressed mRNA in the absence of chemical substance,yeast gene YCR088W,0.9
same,The level of expressed mRNA in the presence of chemical substance/The level of expressed mRNA in the absence of chemical substance,yeast gene YDL008W,3.0
same,The level of expressed mRNA in the presence of chemical substance/The level of expressed mRNA in the absence of chemical substance,yeast gene YDL238C,2.7
same,The level of expressed mRNA in the presence of chemical substance/The level of expressed mRNA in the absence of chemical substance,yeast gene YDR055W,2.4
same,The level of expressed mRNA in the presence of chemical substance/The level of expressed mRNA in the absence of chemical substance,yeast gene YDR084C,0.6
same,The level of expressed mRNA in the presence of chemical substance/The level of expressed mRNA in the absence of chemical substance,yeast gene YDR085C,2.3
same,The level of expressed mRNA in the presence of chemical substance/The level of expressed mRNA in the absence of chemical substance,yeast gene YDR104C,2.7
same,The level of expressed mRNA in the presence of chemical substance/The level of expressed mRNA in the absence of chemical substance,yeast gene YDR115W,1.0
same,The level of expressed mRNA in the presence of chemical substance/The level of expressed mRNA in the absence of chemical substance,yeast gene YDR259C,1.8
same,The level of expressed mRNA in the presence of chemical substance/The level of expressed mRNA in the absence of chemical substance,yeast gene YDR315C,1.6
same,The level of expressed mRNA in the presence of chemical substance/The level of expressed mRNA in the absence of chemical substance,yeast gene YDR358W,3.2
same,The level of expressed mRNA in the presence of chemical substance/The level of expressed mRNA in the absence of chemical substance,yeast gene YDR388W,0.9
same,The level of expressed mRNA in the presence of chemical substance/The level of expressed mRNA in the absence of chemical substance,yeast gene YDR432W,0.8
same,The level of expressed mRNA in the presence of chemical substance/The level of expressed mRNA in the absence of chemical substance,yeast gene YDR481C,1.6
same,The level of expressed mRNA in the presence of chemical substance/The level of expressed mRNA in the absence of chemical substance,yeast gene YDR510W,2.5
same,The level of expressed mRNA in the presence of chemical substance/The level of expressed mRNA in the absence of chemical substance,yeast gene YEL042W,0.3
same,The level of expressed mRNA in the presence of chemical substance/The level of expressed mRNA in the absence of chemical substance,yeast gene YEL066W,2.4
same,The level of expressed mRNA in the presence of chemical substance/The level of expressed mRNA in the absence of chemical substance,yeast gene YER039C,0.8
same,The level of expressed mRNA in the presence of chemical substance/The level of expressed mRNA in the absence of chemical substance,yeast gene YER107C,0.5
same,The level of expressed mRNA in the presence of chemical substance/The level of expressed mRNA in the absence of chemical substance,yeast gene YER130C,1.3
same,The level of expressed mRNA in the presence of chemical substance/The level of expressed mRNA in the absence of chemical substance,yeast gene YFL028C,1.8
same,The level of expressed mRNA in the presence of chemical substance/The level of expressed mRNA in the absence of chemical substance,yeast gene YFL043C,3.8
same,The level of expressed mRNA in the presence of chemical substance/The level of expressed mRNA in the absence of chemical substance,yeast gene YGL158W,0.9
same,The level of expressed mRNA in the presence of chemical substance/The level of expressed mRNA in the absence of chemical substance,yeast gene YGL229C,1.7
same,The level of expressed mRNA in the presence of chemical substance/The level of expressed mRNA in the absence of chemical substance,yeast gene YGR136W,2.2
same,The level of expressed mRNA in the presence of chemical substance/The level of expressed mRNA in the absence of chemical substance,yeast gene YGR189C,0.9
same,The level of expressed mRNA in the presence of chemical substance/The level of expressed mRNA in the absence of chemical substance,yeast gene YGR213C,6.9
same,The level of expressed mRNA in the presence of chemical substance/The level of expressed mRNA in the absence of chemical substance,yeast gene YGR257C,1.9
same,The level of expressed mRNA in the presence of chemical substance/The level of expressed mRNA in the absence of chemical substance,yeast gene YHR004C,0.6
same,The level of expressed mRNA in the presence of chemical substance/The level of expressed mRNA in the absence of chemical substance,yeast gene YHR071W,7.2
same,The level of expressed mRNA in the presence of chemical substance/The level of expressed mRNA in the absence of chemical substance,yeast gene YHR139C,46.6
same,The level of expressed mRNA in the presence of chemical substance/The level of expressed mRNA in the absence of chemical substance,yeast gene YHR142W,0.9
same,The level of expressed mRNA in the presence of chemical substance/The level of expressed mRNA in the absence of chemical substance,yeast gene YIL123W,0.2
same,The level of expressed mRNA in the presence of chemical substance/The level of expressed mRNA in the absence of chemical substance,yeast gene YIL140W,0.6
same,The level of expressed mRNA in the presence of chemical substance/The level of expressed mRNA in the absence of chemical substance,yeast gene YJL073W,0.7
same,The level of expressed mRNA in the presence of chemical substance/The level of expressed mRNA in the absence of chemical substance,yeast gene YJL089W,3.9
same,The level of expressed mRNA in the presence of chemical substance/The level of expressed mRNA in the absence of chemical substance,yeast gene YJL116C,2.6
same,The level of expressed mRNA in the presence of chemical substance/The level of expressed mRNA in the absence of chemical substance,yeast gene YJR004C,0.7
same,The level of expressed mRNA in the presence of chemical substance/The level of expressed mRNA in the absence of chemical substance,yeast gene YJR086W,1.1
same,The level of expressed mRNA in the presence of chemical substance/The level of expressed mRNA in the absence of chemical substance,yeast gene YKL008C,0.4

# Reference: patent US20050112573A1, “Method of detecting toxic substance” (priority 2001, published 2005)
